Results from patent US20250179059A1 (The Regents of the University of California, priority 2021, published 2025).

Biological target: T1, human BRD4 bromodomain II (Homo sapiens, UniProt O60885)
T1 construct: human BRD4 bromodomain II [based on Genbank NM_058243, residues 349-460]; host or cells: E. coli
Assay: Bromodomain binding assay (AlphaScreen), BRD4 BDII
Conditions: AlphaScreen assay, Table C2; read-out: BRD4 BDII IC50
Procedure, shortened: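 AlphaScreen competition: His6-BRD4 BDI (aa 44-170) or BDII (aa 349-460) vs biotin-H4(1-21) K5/K8/K12/K16Ac peptide; Ni-chelate acceptor/streptavidin donor beads. HEPES pH 7.5, NaCl, CHAPS, BSA, 1% DMSO; RT. 10-pt 3-fold titration, % peptide binding fitted → IC50.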

IC50 | SMILES
> 100 nM | CCNC(=O)c1ccc(-c2cccc(-c3ccc(NC(C)=O)c(F)c3)c2O)cc1 [Example 92, 4″-Acetamido-N-ethyl-3″-fluoro-2′-hydroxy-[1,1′:3′,1″-terphenyl]-4-carboxamide]
> 100 nM | CCNC(=O)c1cccc(-c2cccc(-c3ccc(NC(C)=O)c(F)c3)c2O)c1 [Example 93, 4″-Acetamido-N-ethyl-3″-fluoro-2′-hydroxy-[1,1′:3′,1″-terphenyl]-3-carboxamide]
> 100 nM | CC(=O)Nc1ccc(-c2cccc(-c3ccc(NC(C)=O)c(C(C)C)c3)c2O)cc1F [Example 96, N,N′-(3-Fluoro-2′-hydroxy-3″-isopropyl-[1,1′:3′,1″-terphenyl]-4,4″diyl)diacetamide]
> 100 nM | COc1cc(-c2cccc(-c3ccc(NC(C)=O)c(F)c3)c2O)ccn1 [Example 97, N-(3-Fluoro-2′-hydroxy-3′-(2-methoxypyridin-4-yl)-[1,1′-biphenyl]-4-yl)acetamide]
10 to 100 nM | COc1ccc(-c2cccc(-c3ccc(NC(C)=O)c(F)c3)c2O)cn1 [Example 98, N-(3-Fluoro-2′-hydroxy-3′-(6-methoxypyridin-3-yl)-[1,1′-biphenyl]-4-yl)acetamide]
10 to 100 nM | CC(=O)Nc1ccc(-c2cccc(-c3ccc(NC(C)=O)c(F)c3)c2O)cc1 [Example 99, N,N′-(3-Fluoro-2′-hydroxy-[1,1′:3′,1″-terphenyl]-4,4″-diyl)diacetamide]
> 100 nM | CC(=O)Nc1ccc(-c2cccc(-c3ccc4c(c3)CCCN4C(C)=O)c2O)cc1F [Example 101, N-(3′-(1-Acetyl-1,2,3,4-tetrahydroquinolin-6-yl)-3-fluoro-2′-hydroxy-[1,1′-biphenyl]-4-yl)acetamide]
10 to 100 nM | CC(=O)Nc1ccc(-c2cccc(-c3ccnnc3)c2O)cc1F [Example 102, N-(3-Fluoro-2′-hydroxy-3′-(pyridazin-4-yl)-[1,1′-biphenyl]-4-yl)acetamide]
> 100 nM | CC(=O)Nc1ccc(-c2cccc(-c3ccc4c(c3)OCCCN4C(C)=O)c2O)cc1F [Example 104, N-(3′-(5-Acetyl-2,3,4,5-tetrahydrobenzo[b][1,4]oxazepin-8-yl)-3-fluoro-2′-hydroxy-[1,1′-biphenyl]-4-yl)acetamide]
> 100 nM | CC(=O)Nc1ccc(-c2cccc(-c3cccc(OC(C)C)c3)c2O)cc1F [Example 107, N-(3-Fluoro-2′-hydroxy-3″-isopropoxy-[1,1′:3′,1″-terphenyl]-4-yl)acetamide]
10 to 100 nM | CC(=O)Nc1ccc(-c2cccc(-c3ccc(N)nc3)c2O)cc1F [Example 110, N-(3′-(6-Aminopyridin-3-yl)-3-fluoro-2′-hydroxy-[1,1′-biphenyl]-4-yl)acetamide]
10 to 100 nM | CC(=O)Nc1ccc(-c2cccc(-c3ccnc(N)c3)c2O)cc1F [Example 111, N-(3′-(2-Aminopyridin-4-yl)-3-fluoro-2′-hydroxy-[1,1′-biphenyl]-4-yl)acetamide]
> 100 nM | CC(=O)Nc1ccc(-c2cccc(-c3ccc4occc4c3)c2O)cc1F [Example 119, N-(3′-(Benzofuran-5-yl)-3-fluoro-2′-hydroxy-[1,1′-biphenyl]-4-yl)acetamide]
10 to 100 nM | CC(=O)Nc1ccc(-c2cccc(-c3ccc4ncccc4c3)c2O)cc1F [Example 120, N-(3-Fluoro-2′-hydroxy-3′-(quinolin-6-yl)-[1,1′-biphenyl]-4-yl)acetamide]
> 100 nM | CC(=O)Nc1ccc(-c2cccc(-c3ccc4c(c3)ncn4C)c2O)cc1F [Example 121, N-(3-Fluoro-2′-hydroxy-3′-(1-methyl-1H-benzo[d]imidazol-5-yl)-[1,1′-biphenyl]-4-yl)acetamide]
> 100 nM | CC(=O)Nc1ccc(-c2cccc(-c3ccc4ocnc4c3)c2O)cc1F [Example 122, N-(3′-(Benzo[d]oxazol-5-yl)-3-fluoro-2′-hydroxy-[1,1′-biphenyl]-4-yl)acetamide]
> 100 nM | CC(=O)Nc1ccc(-c2cccc(-c3ccc4[nH]ccc4c3)c2O)cc1F [Example 123, N-(3-Fluoro-2′-hydroxy-3′-(1H-indol-5-yl)-[1,1′-biphenyl]-4-yl)acetamide]
10 to 100 nM | COc1cc(-c2cccc(-c3ccc(N4CCCC4=O)c(F)c3)c2O)ccc1NC(C)=O [Example 129, N-(3″-Fluoro-2′-hydroxy-3-methoxy-4″-(2-oxopyrrolidin-1-yl)-[1,1′:3′,1″-terphenyl]-4-yl)acetamide]

More lines, now with the values behind:

SMILES | IC50
CC(=O)Nc1ccc(-c2cccc(-c3cc(N4CCNCC4)no3)c2O)cc1OC1CCCC1 [Example 89, N-(3-(Cyclopentyloxy)-2′-hydroxy-3′-(3-(piperazin-1-yl)isoxazol-5-yl)-[1,1′-biphenyl]-4-yl)acetamide 2,2,2-trifluoroacetate] | 10 to 100 nM
CC(=O)Nc1ccc(-c2cccc(-c3ccc(Oc4ccccc4)cc3)c2O)cc1F [Example 90, N-(3-Fluoro-2′-hydroxy-4″-phenoxy-[1,1′:3′,1″-terphenyl]-4-yl)acetamide] | > 100 nM
CC(=O)Nc1ccc(-c2cccc(-c3cccc(Oc4ccccc4)c3)c2O)cc1F [Example 91, N-(3-Fluoro-2′-hydroxy-3″-phenoxy-[1,1′:3′,1″-terphenyl]-4-yl)acetamide] | > 100 nM
CC(=O)Nc1ccc(-c2cccc(-c3ccc(N4CCOCC4)cc3)c2O)cc1F [Example 94, N-(3-Fluoro-2′-hydroxy-4″-morpholino-[1,1′:3′,1″-terphenyl]-4-yl)acetamide] | > 100 nM
CC(=O)Nc1c(F)cc(-c2cccc(-c3cc(N4CCNCC4)no3)c2O)cc1OC1CCC1 [Example 100, N-(3-Cyclobutoxy-5-fluoro-2′-hydroxy-3′-(3-(piperazin-1-yl)isoxazol-5-yl)-[1,1′-biphenyl]-4-yl)acetamide] | 1 to 10 nM
CC(=O)Nc1ccc(-c2cccc(-c3cncnc3)c2O)cc1F [Example 103, N-(3-Fluoro-2′-hydroxy-3′-(pyrimidin-5-yl)-[1,1′-biphenyl]-4-yl)acetamide] | 10 to 100 nM
CC(=O)Nc1ccc(-c2cccc(-c3cc(N4CCN(C(=O)c5ccccc5)CC4)no3)c2O)cc1 [Example 105, N-(3′-(3-(4-Benzoylpiperazin-1-yl)isoxazol-5-yl)-2′-hydroxy-[1,1′-biphenyl]-4-yl)acetamide] | > 100 nM
CC(=O)Nc1ccc(-c2cccc(-c3ccc(OC(C)C)cc3)c2O)cc1F [Example 106, N-(3-Fluoro-2′-hydroxy-4″-isopropoxy-[1,1′:3′,1″-terphenyl]-4-yl)acetamide] | > 100 nM
CC(=O)Nc1ccc(-c2cccc(-c3ccc(N4CCNCC4)cc3)c2O)cc1F [Example 108, N-(3-Fluoro-2′-hydroxy-4″-(piperazin-1-yl)-[1,1′:3′,1″-terphenyl]-4-yl)acetamide] | > 100 nM
CC(=O)Nc1ccc(-c2cccc(-c3cnc(N4CCNCC4)o3)c2O)cc1F [Example 112, N-(3-Fluoro-2′-hydroxy-3′-(2-(piperazin-1-yl)oxazol-5-yl)-[1,1′-biphenyl]-4-yl)acetamide] | 10 to 100 nM
O=C1CCCN1c1ccc(-c2cccc(-c3cc(N4CCNCC4)no3)c2O)cc1F [Example 113, 1-(3-Fluoro-2′-hydroxy-3′-(3-(piperazin-1-yl)isoxazol-5-yl)-[1,1′-biphenyl]-4-yl)pyrrolidin-2-one] | 10 to 100 nM
CC(=O)Nc1ccc(-c2cccc(-c3cccc(OC4CCC4)c3)c2O)cc1F [Example 114, N-(3″-Cyclobutoxy-3-fluoro-2′-hydroxy-[1,1′:3′,1″-terphenyl]-4-yl)acetamide] | > 100 nM
CC(=O)Nc1ccc(-c2cccc(-c3cccc(OC4CCCC4)c3)c2O)cc1F [Example 115, N-(3″-(Cyclopentyloxy)-3-fluoro-2′-hydroxy-[1,1′:3′,1″-terphenyl]-4-yl)acetamide] | > 100 nM
CCC(=O)Nc1ccc(-c2cccc(-c3cc(N4CCNCC4)no3)c2O)cc1 [Example 116, N-(2′-Hydroxy-3′-(3-(piperazin-1-yl)isoxazol-5-yl)-[1,1′-biphenyl]-4-yl)propionamide 2,2,2-trifluoroacetate] | > 100 nM
CC(=O)Nc1ccc(-c2cccc(-c3ccc(OC4CCC4)cc3)c2O)cc1F [Example 117, N-(4″-Cyclobutoxy-3-fluoro-2′-hydroxy-[1,1′:3′,1″-terphenyl]-4-yl)acetamide] | > 100 nM
CC(=O)Nc1ccc(-c2cccc(-c3ccc(OC4CCCC4)cc3)c2O)cc1F [Example 118, N-(4″-(Cyclopentyloxy)-3-fluoro-2′-hydroxy-[1,1′:3′,1″-terphenyl]-4-yl)acetamide] | > 100 nM
CC(=O)Nc1ccc(-c2cccc(-c3cnc4[nH]ccc4c3)c2O)cc1F [Example 124, N-(3-fluoro-2′-hydroxy-3′-(1H-pyrrolo[2,3-b]pyridin-5-yl)-[1,1′-biphenyl]-4-yl)acetamide] | > 100 nM
CC(=O)Nc1ccc(-c2cccc(-c3cnc4c(ccn4C)c3)c2O)cc1F [Example 125, N-(3-Fluoro-2′-hydroxy-3′-(1-methyl-1H-pyrrolo[2,3-b]pyridin-5-yl)-[1,1′-biphenyl]-4-yl)acetamide] | > 100 nM
CC(=O)Nc1c(F)cc(-c2cccc(-c3cc(N4CCNCC4)no3)c2O)cc1Cl [Example 126, N-(3-Chloro-5-fluoro-2′-hydroxy-3′-(3-(piperazin-1-yl)isoxazol-5-yl)-[1,1′-biphenyl]-4-yl)acetamide 2,2,2-trifluoroacetate] | 10 to 100 nM
COc1cc(-c2cccc(-c3ccc(NC(C)=O)cc3)c2O)ccc1NC(C)=O [Example 127, N,N′-(2′-Hydroxy-3-methoxy-[1,1′:3′,1″-terphenyl]-4,4″-diyl)diacetamide] | 10 to 100 nM
COc1cc(-c2cccc(-c3cc(F)c(NC(C)=O)c(F)c3)c2O)ccc1NC(C)=O [Example 128, N,N′-(3,5-Difluoro-2′-hydroxy-3″-methoxy-[1,1′:3′,1″-terphenyl]-4,4″-diyl)diacetamide] | 10 to 100 nM
